# Where a SMILES comes first, the peptide text is derived from it. [ ]: non-standard residue; d: D form. The star is where a group is joined. pGlu = O=C1CC[C@@H](C(=O)O)N1; Octanoyl = CCCCCCCC(=O)*
# Columns and labels:
# [1] = system: Mattek's EpiDerm™ X (EPI-606-X) reconstructed human epidermis tissue; experiment: Skin metabolism, full scan HRMS search for metabolites in permeation samples; type: in vitro ADME; details: t=4, 8, 20, 22, 24 h vs time zero; positive and negative ESI
# Experimental: The skin metabolism of ZEP3 and ZEP3Na was also investigated. Full scan HRMS chromatograms were acquired for the samples, in both positive and negative ESI mode, in order to identify possible metabolites of the target analytes. Differential analysis between the samples through the experiment (t=4, 8, 20, 22, and 24 h) and the sample at time zero was performed. Evaluation of the fragmentation profile through MS/MS experiments was also performed in order to provide additional information.
# [2] = system: epidermal cells; experiment: Viability of epidermal cells under stress conditions; type: cell-based; details: stress conditions (70 mM NaCl)
# [3] = system: epidermal cells; experiment: Formation of reactive oxygen species (ROS) in epidermal cells under stress conditions; type: cell-based; details: stress conditions (70 mM NaCl)
# [4] = rat, chemical corneal injury; cited from earlier work
metabolites identified [1],Compound,viability of epidermal cells [2],formation of reactive oxygen species (ROS) [3],effect on ocular pain [4]
No metabolites,"CCCCCCCC(=O)NCCCC[C@H](NC(=O)[C@H](Cc1c[nH]c2ccccc12)NC(=O)[C@H](CC(N)=O)NC(=O)[C@@H]1CCC(=O)N1)C(=O)O [ZEP3, pGlu-Asn-Trp-Lys(Octanoyl)-OH] ([pGlu]NWK(Octanoyl)-OH)",increased viability of epidermal cells,reduced the formation of reactive oxygen species (ROS),
,pGlu-Asn-Trp-Thr-OH ([pGlu]NWT-OH; SMILES C[C@@H](O)[C@H](NC(=O)[C@H](Cc1c[nH]c2ccccc12)NC(=O)[C@H](CC(N)=O)NC(=O)[C@@H]1CCC(=O)N1)C(=O)O) [ZEP4],increased viability of epidermal cells,reduced the formation of reactive oxygen species (ROS),analgesic effect

# Source: patent US12433830B2, “Anti-aging compositions and methods of use thereof” (S.I.S. SHULOV INNOVATIVE SCIENCE LTD., priority 2019, dated 2025)
